{
  "source": "patent US20200216499A1",
  "about": "“ANGIOTENSIN-(1-7) ANALOGS AND METHODS RELATING THERETO” (WAKE FOREST UNIVERSITY HEALTH SCIENCES, priority 2015, published 2020)",
  "key": {"[1]": {"target": "human ACE (Homo sapiens, UniProt P12821)", "sequence (P12821 30-1306)": "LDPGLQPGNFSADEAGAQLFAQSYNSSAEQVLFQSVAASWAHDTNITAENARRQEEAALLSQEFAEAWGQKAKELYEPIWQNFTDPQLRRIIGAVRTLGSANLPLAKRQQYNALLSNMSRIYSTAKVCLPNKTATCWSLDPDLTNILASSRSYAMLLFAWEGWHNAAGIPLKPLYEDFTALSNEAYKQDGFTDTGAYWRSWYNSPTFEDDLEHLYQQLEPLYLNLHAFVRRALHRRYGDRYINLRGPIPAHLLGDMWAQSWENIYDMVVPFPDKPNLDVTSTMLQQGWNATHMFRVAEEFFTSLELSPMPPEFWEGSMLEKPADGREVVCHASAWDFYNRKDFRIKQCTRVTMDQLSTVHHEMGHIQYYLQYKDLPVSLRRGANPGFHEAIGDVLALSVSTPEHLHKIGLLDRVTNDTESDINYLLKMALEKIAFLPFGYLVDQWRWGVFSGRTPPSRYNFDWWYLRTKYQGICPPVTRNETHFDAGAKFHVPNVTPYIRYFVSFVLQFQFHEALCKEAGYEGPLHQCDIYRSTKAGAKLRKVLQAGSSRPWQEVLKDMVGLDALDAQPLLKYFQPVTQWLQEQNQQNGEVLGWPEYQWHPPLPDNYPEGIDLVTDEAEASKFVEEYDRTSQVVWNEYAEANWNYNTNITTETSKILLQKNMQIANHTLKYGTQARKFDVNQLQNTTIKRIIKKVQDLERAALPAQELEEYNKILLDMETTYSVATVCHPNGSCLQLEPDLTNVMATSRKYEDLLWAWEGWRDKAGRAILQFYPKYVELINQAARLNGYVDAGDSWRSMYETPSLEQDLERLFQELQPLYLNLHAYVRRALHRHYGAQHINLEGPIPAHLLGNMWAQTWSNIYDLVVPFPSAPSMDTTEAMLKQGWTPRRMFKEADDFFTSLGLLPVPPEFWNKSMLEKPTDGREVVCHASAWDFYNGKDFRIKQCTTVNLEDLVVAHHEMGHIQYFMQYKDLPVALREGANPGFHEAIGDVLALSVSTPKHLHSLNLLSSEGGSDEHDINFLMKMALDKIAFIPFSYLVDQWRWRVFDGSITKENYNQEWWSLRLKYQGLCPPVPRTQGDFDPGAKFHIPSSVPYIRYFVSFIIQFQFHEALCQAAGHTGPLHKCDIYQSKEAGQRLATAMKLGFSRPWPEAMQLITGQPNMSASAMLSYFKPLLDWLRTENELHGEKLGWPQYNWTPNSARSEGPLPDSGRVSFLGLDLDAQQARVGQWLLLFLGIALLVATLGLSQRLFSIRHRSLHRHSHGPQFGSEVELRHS", "test": "Degradation by ACE (HPLC of reaction products)", "format": "in vitro ADME", "settings": "100 μM peptide, 1.0 μg human ACE, reaction buffer pH 7.4, 2 hours at 37° C., HPLC UV 220 nm", "experimental": "(§1) FIGS. 2A-4D show graphs depicting enzymatic digestion by angiotensin converting enzyme (ACE) of Ang-(1-7), Ang-(1-7)-ACCA^5, Ang-(1-7)-ACCA^6, and Ang-(1-7)-ACCA^3, respectively, in accordance with one aspect. The peptides (100 μM) were incubated with human ACE (1.0 μg) in reaction buffer for 2 hours at 37° C. in a final volume of 100 μL, and the reaction products assessed by HPLC (UV 220 nm).\nAnalogs with ACCA at position 5 (Ang-(1-7)-ACCA^5), position 6 (Ang-(1-7)-ACCA^6), and position 3 (Ang-(1-7)-ACCA^3) were assessed to determine whether the analogs were degraded by ACE. Ang-(1-7) served as the control. Specifically, 100 μM of one of the three analogs or Ang-(1-7) was incubated with 1.0 μg of human ACE in reaction buffer (25 mM Hepes, 125 mM NaCl, 10 μM ZnCl2, pH 7.4) for 2 hours at 37° C. in a final volume of 100 μL. The resultant reaction products were separated by high pressure liquid chromatography (HPLC) on a Phenomenex Aeris Peptide C18 column using a Shimadzu Prominence system and detected by UV analysis at 220 nm."}, "[2]": {"target": "T1, Human DPP III (Homo sapiens, UniProt Q9NY33)", "T1 sequence (Q9NY33 1-737)": "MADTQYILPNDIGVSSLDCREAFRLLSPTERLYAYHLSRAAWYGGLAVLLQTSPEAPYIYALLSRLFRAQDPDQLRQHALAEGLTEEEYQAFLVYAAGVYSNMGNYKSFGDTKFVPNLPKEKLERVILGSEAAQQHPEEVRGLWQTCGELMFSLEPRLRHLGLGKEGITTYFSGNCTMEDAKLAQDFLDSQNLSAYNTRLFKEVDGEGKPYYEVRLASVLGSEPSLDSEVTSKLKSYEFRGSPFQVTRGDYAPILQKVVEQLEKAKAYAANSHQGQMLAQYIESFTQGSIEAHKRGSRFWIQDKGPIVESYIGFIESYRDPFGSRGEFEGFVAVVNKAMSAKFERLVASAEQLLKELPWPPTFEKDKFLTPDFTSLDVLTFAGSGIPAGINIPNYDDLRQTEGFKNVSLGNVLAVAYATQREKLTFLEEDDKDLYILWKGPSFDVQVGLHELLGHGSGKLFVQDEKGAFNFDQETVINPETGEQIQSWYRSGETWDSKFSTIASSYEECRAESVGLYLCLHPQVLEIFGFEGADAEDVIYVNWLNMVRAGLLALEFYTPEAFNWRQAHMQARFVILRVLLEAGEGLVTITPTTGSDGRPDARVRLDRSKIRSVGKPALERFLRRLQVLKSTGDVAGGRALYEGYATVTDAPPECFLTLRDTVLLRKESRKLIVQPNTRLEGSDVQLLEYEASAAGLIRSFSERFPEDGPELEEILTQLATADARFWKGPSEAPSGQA", "test": "Degradation by DPP III (HPLC of reaction products)", "format": "in vitro ADME", "settings": "100 μM peptide, 1.0 μg human DPP III, 2 hours at 37° C., HPLC UV 220 nm", "experimental": "as §1, with “3A-5D” for “2A-4D”, “dipeptidyl peptidase III (DPE III)” for “angiotensin converting enzyme (ACE)”, “DPE III” for “ACE”\nThe Ang-(1-7) and the analogs Ang-(1-7)-ACCA^5, Ang-(1-7)-ACCA^6, and Ang-(1-7)-ACCA^3 were assessed to determine whether they were resistant to metabolism by the enzyme dipeptidyl peptidase III (DPP III). DPP III metabolizes Ang-(1-7) at different sites as compared to ACE (Chappell et al., Front Endocrinol (Lausanne) 4:201 (pp. 1-13) (2014)). The incubation conditions and detection methods for the metabolism by DPP III were identical to that used to assess degradation by ACE as described in Example 3."}, "[3]": {"settings": "cited from earlier work"}},
  "note": "“Also recorded” adds a separate entry of the source.",
  "data": [
    {"smiles": "CC[C@H](C)[C@H](NC(=O)[C@H](Cc1ccc(O)cc1)NC(=O)[C@@H](NC(=O)[C@H](CCCNC(=N)N)NC(=O)[C@@H](N)CC(=O)O)C(C)C)C(=O)N[C@@H](Cc1c[nH]cn1)C(=O)N1CCC[C@H]1C(=O)O", "note": "[Ang-(1-7), Asp-Arg-Val-Tyr-Ile-His-Pro]", "values": [
      {"measurement": "degradation / resistance to metabolism by ACE", "setting": "[1]", "value": "degraded to Ang-(1-5) and the dipeptide His-Pro; also recorded: readily degraded"},
      {"measurement": "degradation / resistance to metabolism by DPP III", "setting": "[2]", "value": "sequentially degraded; also recorded: readily degraded"},
      {"measurement": "half-life in plasma", "setting": "[3]", "value": 30, "unit": "min"}
    ]}
  ]
}
